Reference: patent publication US4965280A, “Antifungal carbinols” (E. I. Du Pont de Nemours and Company, priority 1989, dated 1990)
Converted amounts (≈) assume the structure as drawn. Where two headings read alike, the source gives them in different places.

Assays:
Rhizoctonia solani [1] = assay: Example F rice sheath blight; assay type: in vivo; settings: Rhizoctonia solani, 144 h, read-out: disease control rating, Ex. F
Summary of the method: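 Application rates were 100 or 20 ppm, delivered as a foliar spray to the point of run-off on rice seedlings. The formulation used 6% acetone in water with 250 ppm surfactant.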

[2] = tested on: Erysiphe graminis f. sp. tritici; assay: Example D wheat powdery mildew; assay type: in vivo; settings: Blumeria graminis, 144 h, read-out: disease control rating, Ex. D
Summary of the method: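 First, compound taken up in acetone, 6% of the end volume. Next, suspended in water with 250 ppm polyhydric alcohol esters at 100 or 20 ppm. Last, applied to wheat seedlings until run-off.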

Pythium aphanadermatum = assay: Example J cucumber damping off; assay type: in vivo; settings: Pythium, 336 h; 5 kg/ha; read-out: disease control rating, Ex. J
Summary of the method: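 This cucumber damping-off test used soil and seeds infested with a sand–cereal preparation carrying mycelium of Pythium aphanadermatum. Incubation took place in a growth chamber held at 30° C. for 14 days. Afterwards, the extent of disease was scored as a disease control rating.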

[3] = tested on: Candida albicans ATCC 11651; assay: In vitro antifungal MIC, microtiter broth dilution; settings: for MIC: Candida albicans, ATCC11651, 24 h, read-out: MIC values, C. albicans, 30°, 24 hours
Botrytis cinerea = assay: Example C bean grey mold; assay type: in vivo; settings: Botrytis cinerea, 24 h, read-out: disease control rating, Ex. C
Summary of the method: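 At 20 or 100 ppm, each compound was applied as an aqueous suspension (acetone 6% final; TREM 014 250 ppm) sprayed onto young broad bean plants to the point of run-off.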

Rhizoctonia solani [4] = assay: Example K cotton blight; assay type: in vivo; settings: 336 h, 5 kg/ha, read-out: disease control rating, Ex. K
Procedure: […] Seeds and soil were then inoculated with a mixture of sand, cereal and mycelium of the fungus Rhizoctonia solani, causal agent of cotton blight, and incubated in a growth chamber at 30° C. for 14 days. Disease ratings were then made.

[5] = tested on: Fusarium oxysporum f. sp. cucumerinum; assay: Example L cucumber wilt; assay type: in vivo; settings: 336 h, 5 kg/ha, read-out: disease control rating, Ex. L
Procedure: […] Seeds and soil were then inoculated with a mixture of sand, cereal and mycelium of the fungus Fusarium oxysporum f. sp. cucumerinum, causal agent of cucumber wilt, and incubated in a growth chamber at 30° C. for 14 days. Disease ratings were then made.

[6] = tested on: Candida albicans ATCC 11651; assay: In vivo systemic Candida infection in mice, primary assay; parameters: species or system Candida albicans; CF-1 female mice; settings: Candida albicans, read-out: % Survival
Summary of the method: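 CF-1 female mice (20 g, 10 per group) were infected IV with 0.2 ml of 1×10^7/ml C. albicans ATCC 11651, then given test compound subcutaneously at 50 or 150 mg/kg/day at 1 and 6 h post-infection and once daily for three more days. Survival was followed for 21 days against infected untreated mice; ≥70% protection at 14 days was scored active.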

[7] = tested on: Cercosporidium personatum; assay: Example B Peanut Late Leafspot; assay type: in vivo; settings: Nothopassalora personata, read-out: disease control rating, Ex. B
Summary of the method: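 Dose 100 or 20 ppm; vehicle acetone 6% v/v final in water + 250 ppm surfactant; applied by spraying peanut seedlings to run-off.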

Phytophthora infestans = assay: whole plant or invertebrate; assay type: in vivo; settings: Phytophthora infestans, in Solanum lycopersicum, read-out: disease control rating, Ex. H, 100 PPM
Puccinia recondita = assay: Example G wheat leaf rust; assay type: in vivo; settings: read-out: disease control rating, Ex. G
Plasmorpara viticola = assay: Example I grape downy mildew; assay type: in vivo; settings: read-out: disease control rating, Ex. I
Summary of the method: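 Applied as a foliar spray to run-off on grape seedlings, the compounds were formulated at 100 or 20 ppm in water containing 250 ppm TREM 014, with acetone making up 6% of the volume.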

Pyricularia oryzae = assay: whole plant or invertebrate; assay type: in vivo; settings: Pyricularia oryzae, 120 h; for pest or weed control at 20 ppm: read-out: disease control rating, Ex. E, 20 PPM; for pest or weed control at 100 ppm: read-out: disease control rating, Ex. E, 100 PPM
Venturia inaequalis = assay: Example A apple scab; assay type: in vivo; settings: read-out: disease control rating, Ex. A
Summary of the method: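 First, compounds are taken up in acetone amounting to 6% of the final volume. Next, they are suspended in purified water with 250 ppm TREM 014 at 100 or 20 ppm. Finally, seedlings of apple are sprayed until run-off.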

[8] = tested on: Aspergillus fumigatus ATCC 28214; assay: In vitro antifungal MIC, microtiter broth dilution; settings: for MIC: Aspergillus fumigatus, ATCC28214, 24 h, read-out: MIC values, A. fumigatus, 30°, 24 hours
Sclerotium rolfsii = assay: Example M southern blight; assay type: in vivo; settings: Agroathelia rolfsii, 336 h; 5 kg/ha; read-out: disease control rating, Ex. M
Procedure: […] Seeds and soil were then inoculated with a mixture of sand, cereal and mycelium of the fungus Sclerotium rolfsii, causal agent of sourthern blight, and incubated in a growth chamber at 30° C. for 14 days. Disease ratings were then made.

[9] = ATCC11651, 168 h, 150 mg/kg per day, day 7
[10] = ATCC11651, 336 h, 150 mg/kg per day, day 14
[11] = ATCC11651, 504 h, 150 mg/kg per day, day 21

Row | Compound | pest or weed control at 100 ppm (Rhizoctonia solani [1]) [%] | pest or weed control at 5000 g/ha (Pythium aphanadermatum) [%] | MIC [3] [µg/mL] | pest or weed control at 5000 g/ha (Rhizoctonia solani [4]) [%] | pest or weed control at 5000 g/ha [5] [%] | responders at 150 mg/kg [6, 9] [%] | responders at 150 mg/kg [6, 10] [%] | responders at 150 mg/kg [6, 11] [%] | pest or weed control at 100 ppm (Phytophthora infestans) [%] | pest or weed control at 100 ppm (Plasmorpara viticola) [%] | pest or weed control at 100 ppm (Pyricularia oryzae) [%] | MIC [8] [µg/mL] | pest or weed control at 5000 g/ha (Sclerotium rolfsii) [%] | pest or weed control at 100 ppm (Botrytis cinerea) [%] | pest or weed control at 100 ppm [2] [%] | pest or weed control at 100 ppm [7] [%] | pest or weed control at 100 ppm (Puccinia recondita) [%] | pest or weed control at 100 ppm (Venturia inaequalis) [%] | further results
1 | C=C(c1ccc(OC)cc1)C(O)(Cn1cncn1)c1ccc(F)cc1 (stereo not shown) [Example 726] | 0 | 0 | 0.8 (≈ 2.36 µM) | 20 | 0 | 100 | 80 | 10 | 0 | 38 | 0 | 6.3 (≈ 18.6 µM) | 0 | – | – | – | – | – | pest or weed control at 20 ppm (Rhizoctonia solani [1]): 0%; pest or weed control at 20 ppm [2]: 81%; pest or weed control at 20 ppm (Botrytis cinerea): 23%; pest or weed control at 20 ppm [7]: 0%; pest or weed control at 20 ppm (Puccinia recondita): 100%; pest or weed control at 20 ppm (Pyricularia oryzae): 0%; pest or weed control at 20 ppm (Venturia inaequalis): 75%
2 | C=C(c1ccc(C(F)(F)F)cc1)C(O)(Cn1cncn1)c1ccc(Cl)cc1 (stereo not shown) [Example 67] | 68 | 0 | 0.03 (≈ 0.0762 µM) | 0 | 0 | 100 | 100 | 100 | 2 | 1 | 0 | 100 (≈ 254 µM) | 0 | 75 | – | – | – | – | pest or weed control at 20 ppm (Rhizoctonia solani [1]): 35%; pest or weed control at 20 ppm [2]: 85%; pest or weed control at 20 ppm (Botrytis cinerea): 60%; pest or weed control at 20 ppm [7]: 99%; pest or weed control at 20 ppm (Puccinia recondita): 89%; pest or weed control at 20 ppm (Pyricularia oryzae): 0%; pest or weed control at 20 ppm (Venturia inaequalis): 58%
3 | C=CCOC(Cn1cncn1)(C(=C)c1ccc(F)cc1)c1ccc(F)cc1 (stereo not shown) [Example 360] | 49 | 0 | 0.8 (≈ 2.18 µM) | 0 | 0 | 100 | 60 | 40 | 0 | 0 | 74 | 100 (≈ 272 µM) | 0 | 71 | 86 | 100 | 93 | 88 | –
4 | C=C(c1ccc(F)cc1)C(Cn1cncn1)(OC)c1ccc(F)cc1 (stereo not shown) [Example 359] | 62 | 0 | 0.4 (≈ 1.17 µM) | 0 | 0 | 100 | 80 | 80 | 0 | 0 | 88 | 50 (≈ 146 µM) | 0 | 83 | 95 | 100 | 100 | 72 | –
5 | C=C(c1ccc(Cl)cc1)C(O)(Cn1cncn1)c1ccc(Cl)cc1Cl (stereo not shown) [Example 26, 2-(2,4-Dichlorophenyl)-3-(4-chlorophenyl)-1-(1H-1,2,4-triazol-1-yl)-3-buten-2-ol] | 61 | 0 | – | 25 | 25 | 100 | 100 | 100 | 23 | 86 | 31 | – | 35 | 96 | 86 | 100 | 97 | 100 | MIC values, C. albicans ([3]; 30°, 24 hours): ≤ 0.4 µg/mL; MIC values, A. fumigatus ([8]; 30°, 24 hours): 12.5 µg/mL (≈ 31.7 µM)
6 | C=C(c1ccc(F)cc1)C(Cn1cncn1)(OC(=O)NC)c1ccc(F)cc1 (stereo not shown) [Example 363] | 0 | 0 | 100 (≈ 260 µM) | 0 | 0 | – | – | – | 0 | 0 | 0 | 100 (≈ 260 µM) | 0 | 92 | 28 | 49 | 38 | 0 | responders at 150 mg/kg ([6]; ATCC11651, 168 h): 10%; responders at 150 mg/kg ([6]; ATCC11651, 336 h): 0%; responders at 150 mg/kg ([6]; ATCC11651, 504 h): 0%
7 | C=C(c1cccc(Cl)c1)C(O)(Cn1cncn1)c1ccc(Cl)cc1 (stereo not shown) [Example 41] | 97 | 0 | 0.4 (≈ 1.11 µM) | 0 | 0 | 100 | 100 | – | 0 | 100 | 7 | 50 (≈ 139 µM) | 0 | 96 | 98 | 100 | 100 | 100 | –
